Among the test systems are SNB-75 CNS; NCI-H226 lung; NCI/ADR-RES ovarian; M14 melanoma; PC-3 prostate; 786-0 renal; OVCAR-4 ovarian; HOP-92 NSCLC; ACHN renal.
Common to all, as to experiment: NCI anticancer screen, dose series, 48 h

Experimental findings from PubChem BioAssay (NCI) are described below.

The structures appear in SMILES notation.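 Compound exposure: 48 hours, 5 concentrations, 96-well plates. Abbreviation: GI50, concentration required for 50% inhibition of growth. Definition used: TGI = concentration required for complete inhibition of growth.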

As to `CC(C)(C)c1ccc(OCCOc2ccc(C(C)(C)C)cc2NC=O)c(NC=O)c1`, the TGI is above 78.7 µM in the assay with SNB-75 CNS; 28.1 µM in the assay on NCI-H226 lung; 37.7 µM with NCI/ADR-RES ovarian; 20.7 µM in the assay with M14 melanoma; above 100 µM with PC-3 prostate; 37.8 µM in the assay on 786-0 renal. Also, the TGI is 54.2 µM in the assay on OVCAR-4 ovarian, 23.5 µM with HOP-92 NSCLC and above 73.2 µM in the assay on ACHN renal.

For the molecule `COc1ccc(CNCCN2C(=O)c3ccc4c5c(ccc(c35)C2=O)C(=O)N(CCNCc2ccc(OC)c(OC)c2OC)C4=O)c(OC)c1OC`, the GI50 with SNB-75 CNS is 0.903 µM; in the assay on OVCAR-4 ovarian it was 0.0762 µM; in the assay on HOP-92 NSCLC, 1.56 µM. Also, the figures for the TGI with SNB-75 CNS, with OVCAR-4 ovarian and in the assay with HOP-92 NSCLC were 2.09 µM, 0.146 µM and 3.44 µM, respectively.

Regarding `Clc1cccc(C=NC23CC4CC(CC(C4)C2)C3)c1Cl`, the TGI in the assay on SNB-75 CNS, in the assay with NCI-H226 lung, in the assay on NCI/ADR-RES ovarian, with M14 melanoma, in the assay with PC-3 prostate and in the assay on 786-0 renal was above 10 µM each time. Further, the TGI with OVCAR-4 ovarian, in the assay on HOP-92 NSCLC and in the assay with ACHN renal was above 10 µM in each case.

For `COC(=O)c1cc(NC(=O)Cn2c3ccccc3c3ccccc32)cn1C`, the TGI in the assay on NCI-H226 lung is 58.5 µM; in the assay with NCI/ADR-RES ovarian it was above 100 µM; in the assay on M14 melanoma, above 100 µM; with PC-3 prostate, above 100 µM; in the assay on 786-0 renal it was 72.2 µM; in the assay on OVCAR-4 ovarian, 74.9 µM. The same molecule showed a TGI in the assay with ACHN renal above 100 µM.

On to `O=[N+]([O-])c1cc(-c2ccc([As](=O)(O)O)cc2)ccc1[As](=O)(O)O`, for which the TGI in the assay on NCI-H226 lung, in the assay with NCI/ADR-RES ovarian, in the assay with M14 melanoma, with PC-3 prostate, in the assay with 786-0 renal and in the assay on OVCAR-4 ovarian was above 100 µM each time. In addition, the TGI in the assay with HOP-92 NSCLC and in the assay on ACHN renal was above 100 µM throughout.

Turning to `COC(=O)[C@@]1(Cc2ccc(OC(C)=O)cc2)Cc2cc3ccccc3n2N1`, the TGI was above 100 µM in the assay on NCI-H226 lung; 96.4 µM in the assay on NCI/ADR-RES ovarian; above 100 µM in the assay on M14 melanoma; above 100 µM with PC-3 prostate; above 100 µM in the assay with 786-0 renal; above 100 µM in the assay with OVCAR-4 ovarian. The TGI in the assay on HOP-92 NSCLC and with ACHN renal was above 100 µM in each case.

In the case of `CC(=O)[C@H]1CC[C@@H]2[C@]1(C)CC=C1[C@]23C=C[C@]2(C[C@@H](O)CC[C@]12C)C(C(=O)O)C3C(=O)O` (some centres undefined), the TGI with SNB-75 CNS, in the assay on NCI-H226 lung, in the assay with NCI/ADR-RES ovarian, in the assay on M14 melanoma, in the assay on PC-3 prostate and in the assay on 786-0 renal was above 100 µM in each case. Besides, the TGI with OVCAR-4 ovarian, with HOP-92 NSCLC and with ACHN renal was above 100 µM each time.

In the case of `CNC(=O)/C(C#N)=C(\N)N1CCCC1`, the TGI in the assay with NCI-H226 lung, in the assay with NCI/ADR-RES ovarian, with PC-3 prostate, with 786-0 renal and in the assay with ACHN renal was above 100 µM throughout.

Consider `CCOP(=O)(OCC)C(Cc1cn(S(=O)(=O)c2ccc(C)cc2)cn1)C(=O)O` (centres undefined), for which the TGI in the assay with SNB-75 CNS, with NCI-H226 lung, with NCI/ADR-RES ovarian, in the assay with M14 melanoma, in the assay on PC-3 prostate and with 786-0 renal was above 100 µM throughout. Moreover, the TGI in the assay on OVCAR-4 ovarian, with HOP-92 NSCLC and in the assay with ACHN renal was above 100 µM throughout.

For `O=c1oc2c(Cl)cc(Cl)cc2cc1-c1cn2c(n1)sc1ccccc12`, the TGI in the assay on SNB-75 CNS, in the assay on NCI/ADR-RES ovarian, in the assay on M14 melanoma, in the assay with PC-3 prostate, in the assay with 786-0 renal and with OVCAR-4 ovarian was above 100 µM each time. Moreover, the TGI in the assay with HOP-92 NSCLC and with ACHN renal was above 100 µM in each case.

As to `O=S1(=O)OCCOS(=O)(=O)C1C1c2ccccc2-c2ccccc21`, the TGI in the assay on SNB-75 CNS was 31.9 µM; in the assay on NCI-H226 lung it was above 100 µM; in the assay on NCI/ADR-RES ovarian it was 85.1 µM; in the assay on M14 melanoma, above 100 µM; with PC-3 prostate, above 100 µM; with 786-0 renal, above 100 µM. Besides, the TGI with OVCAR-4 ovarian is 52.4 µM; in the assay on HOP-92 NSCLC it was above 100 µM; in the assay with ACHN renal it was above 100 µM.

As for `Cn1c(SCc2ccc([N+](=O)[O-])cc2)nnc1C12CC3CC(CC(C3)C1)C2`, the TGI in the assay with SNB-75 CNS, with NCI-H226 lung, in the assay on NCI/ADR-RES ovarian, in the assay with M14 melanoma, in the assay with PC-3 prostate and in the assay with 786-0 renal was above 10 µM each time. For the same molecule, the TGI in the assay with OVCAR-4 ovarian, in the assay on HOP-92 NSCLC and in the assay with ACHN renal was above 10 µM each time.

For `CCc1c[n+]2c(cc1C1=CN3c4ccccc4[C@]45CCN6C/C(=C/CO)[C@H](C[C@H]64)[C@@H]([C@@H]1O)[C@H]35)-c1[nH]c3ccccc3c1CC2`, the TGI in the assay with SNB-75 CNS, in the assay with NCI-H226 lung, in the assay on NCI/ADR-RES ovarian, with M14 melanoma, with PC-3 prostate and with 786-0 renal was above 50 µM in each case. Besides, the TGI in the assay on OVCAR-4 ovarian, with HOP-92 NSCLC and with ACHN renal was above 50 µM in each case.

Regarding `CC(NC(=O)C(NC(=O)C(NC(=O)C(F)(F)F)C(C)C)C(C)C)C(=O)Oc1c(Cl)c(Cl)c(Cl)c(Cl)c1Cl` (centres undefined), the TGI in the assay with SNB-75 CNS, in the assay with NCI-H226 lung, in the assay with NCI/ADR-RES ovarian, in the assay on M14 melanoma, in the assay with PC-3 prostate and in the assay with OVCAR-4 ovarian was above 100 µM each time. The TGI in the assay with HOP-92 NSCLC and with ACHN renal was above 100 µM throughout.

For the molecule `COc1cc2ccnc3c2c(c1OC)N(C)C=C3`, the TGI in the assay with SNB-75 CNS was above 100 µM; in the assay with NCI-H226 lung, 54.1 µM; with NCI/ADR-RES ovarian, 76.4 µM; in the assay with M14 melanoma, 68.8 µM; in the assay with PC-3 prostate, above 100 µM; in the assay with 786-0 renal, 53.6 µM. Further, the figures for the TGI in the assay on OVCAR-4 ovarian and with ACHN renal were 71.2 µM and 46.4 µM, respectively.

As for `CSCCC(NOC(=O)Cc1ccccc1)P(=O)(O)c1ccccc1` (centres undefined), the TGI in the assay on SNB-75 CNS, with NCI-H226 lung, in the assay with NCI/ADR-RES ovarian, with M14 melanoma, with PC-3 prostate and in the assay with OVCAR-4 ovarian was above 100 µM each time. Further, the TGI in the assay on HOP-92 NSCLC and with ACHN renal was above 100 µM each time.
